Test results: patent US12607406B2, “Recombinant virus, composition comprising the same, and uses thereof” (ACADEMIA SINICA, priority 2016, dated 2026)

Assays:
[1] = system: Influenza A virus A/WSN/33 (H1N1) neuraminidase (NA) on virus, wild type, SEQ ID NO: 4; type: biochemical
[2] = system: Influenza A virus A/WSN/33 (H1N1) neuraminidase (NA), wild type, SEQ ID NO: 4; type: biochemical

SMILES | Km [1] [µM] | Kcat [2] [s⁻¹] | Km [2] [µM] | Vmax [2] [nM/s]
CC(=O)N[C@H]1[C@H]([C@H](O)[C@H](O)CO)O[C@@](O[C@H]2[C@@H](O)[C@@H](CO)O[C@@H](O[C@H]3[C@H](O)[C@@H](NC(C)=O)C(O)O[C@@H]3CO)[C@@H]2O)(C(=O)O)C[C@@H]1O (stereo partly drawn) [3SLN, 3′-sialyl-N-acetyllactosamine] | 115 | 688.2 | 125 | 7.04
CC(=O)N[C@H]1[C@H]([C@H](O)[C@H](O)CO)O[C@@](Oc2ccc3c(C)cc(=O)oc3c2)(C(=O)O)C[C@@H]1O [4-Muα-Neu5Ac, 2-(4-methylumbelliferyl)-α-D-N-acetylneuraminic acid] | 487 | 514.3 | 585 | 5.025
CC(=O)N[C@H]1[C@H]([C@H](O)[C@H](O)CO)O[C@@](OC[C@H]2O[C@@H](O[C@H]3[C@H](O)[C@@H](NC(C)=O)C(O)O[C@@H]3CO)[C@H](O)[C@@H](O)[C@H]2O)(C(=O)O)C[C@@H]1O (stereo partly drawn) [6SLN, 6′-sialyl-N-acetyllactosamine] | 534 | 104.2 | 679 | 1.07
